Earlier results in PMC7765930, “Antiproliferative Phenanthrenes from Juncus tenuis: Isolation and Diversity-Oriented Semisynthetic Modification” (Molecules, 2020).

Tests used:
[1] = test system: HL-60 cell line; design: method as in PMID 22976333; conditions: read-out: IC50, cytotoxicity against HL-60; cited from earlier work
[2] = test system: vincristine resistant KBVIN cells; design: method as in PMID 19193043; conditions: read-out: IC50, growth inhibition KBVIN; cited from earlier work
[3] = test system: MCF-7 cells; design: method as in PMID 19193043; conditions: read-out: IC50, growth inhibition MCF-7; cited from earlier work
[4] = test system: A549 cells; design: method as in PMID 19193043; conditions: read-out: IC50, growth inhibition A549; cited from earlier work
[5] = test system: PC-3 cells; design: method as in PMID 19193043; conditions: read-out: IC50, growth inhibition PC-3; cited from earlier work
[6] = test system: DU145 cells; design: method as in PMID 19193043; conditions: read-out: IC50, growth inhibition DU145; cited from earlier work
[7] = test system: HCT-8 cells; design: method as in PMID 19193043; conditions: read-out: IC50, growth inhibition HCT-8; cited from earlier work
[8] = test system: KB cells; design: method as in PMID 19193043; conditions: read-out: IC50, growth inhibition KB; cited from earlier work

COC1=C(OC)C(=O)c2c(ccc3cccc(O)c23)C1=O [5-hydroxy-2,3-dimethoxy-1,4-phenanthrenequinone]
IC50 [1]: 4.7 µM

COC1=CC(=O)c2ccc3cc(OC)c(OC)c(O)c3c2C1=O [calanquinone A]
IC50 [2]: 1.43 µM | IC50 [3]: 0.1 µM | IC50 [4]: 0.61 µM | IC50 [5]: 0.51 µM | IC50 [6]: 1.08 µM | IC50 [7]: 0.64 µM | IC50 [8]: 1.02 µM
